From article PMC8699473, “An Easily Expandable Multi-Drug LC-MS Assay for the Simultaneous Quantification of 57 Oral Antitumor Drugs in Human Plasma” (Cancers, 2021)
Values joined by “and” are separate entries in the source; they are usually repeats but may differ in a detail not shown here. Equal entries are not always repeated.

Legend:
[1] = Reference trough level (cmin) at steady state; type: in vivo, human; conditions: minimum steady-state plasma concentration, calculated based on cmax; ref supplement [7], [2,5,24], [51]
[2] = Autosampler stability of ready for injection samples; type: physicochemical, human
[3] = Freeze-thaw stability in spiked pooled human plasma; type: physicochemical
[4] = Plasma concentrations in patients on oral antitumor therapy (LC-MS); type: in vivo, human; conditions: for Measured plasma concentration: 24 h, ±4 h of trough level: no
Text: The liquid chromatography-mass spectrometer system consisted of a Thermo Scientific Dionex UltiMate^TM 3000 with an integrated and temperature controlled autosampler (Thermo Fisher Scientific, Dreieich, Germany). An Acquity UPLC® BEH C18 column (2.1 × 100 mm, 1.7 µm; Waters, Milford, CT, USA) equipped with an Acquity UPLC® BEH C18 VanGuard^TM Pre-Column (2.1 × 5 mm, 1.7 µm; Waters, Milford, CT, USA) was used for chromatographic separation. The Q-Exactive^TM Focus mass spectrometer (MS) was hyphenated with a heated electrospray ionization (HESI) source (both from Thermo Fisher Scientific, Dreieich, Germany).
Chromatographic separation was achieved using a gradient elution with water containing 0.5% (v/v) FA (eluent A) and MeOH with 0.1% (v/v) FA (eluent B). The injection volume was 5 µL. The gradient program is shown in Supplement Table S2. The flow rate was 0.5 mL/min with a total run time of 15 min. The column heater was maintained at 50 °C and the autosampler temperature was 4 °C.
The following MS and HESI settings were maintained for all analyses: Sheath gas, auxiliary gas, and sweep gas flow rates were set to 60, 20, and 0, respectively. The spray voltage was 4000 V. Both capillary and auxiliary gas heater temperatures were set to 400 °C. High-purity nitrogen gas was used for the HESI source gases and for the bath gas of the C-trap. […] The HESI source was configured in positive mode for ionization.
The stock solutions were stored in glass vials at −80 °C. Aliquots of all stock solutions were combined in ACN (volumes of individual stock solution solvents are negligible) to obtain a standard solution of all analytes with an individual concentration of 200% of the respective trough level (cmin). Eight individual working standards were prepared by stepwise dilution of this standard solution with concentrations from 10 to 200% cmin (shown in Supplement Table S3). Furthermore, the four individual IS stock solutions were combined and diluted to 50 ng/mL with ACN. Calibration and validation standards were prepared by spiking 50 µL pooled human plasma with 10 µL of the respective working solution. Next, 250 µL IS solution (50 ng/mL in ACN) were added and vortexed vigorously. […] Then, 100 µL supernatant were transferred to 300 µL HPLC insert glass vials and diluted with 100 µL eluent (90% A/10% B). For blank samples, 50 µL pooled human plasma were combined with 10 µL ACN (instead of working solution) and prepared as described above. The calibration and validation standards were freshly prepared before every run. Patient plasma samples were prepared as calibration and validation standards (no additional processing step necessary), except for adding 10 µL ACN instead of 10 µL working standard. Before sample preparation, the frozen plasma samples were thawed in absence of light at 4 °C.
Blood samples were collected over the entire dosing interval from patients treated with an oral anticancer drug as listed in Supplement Table S4. […] A maximum of two samples at two different time points throughout the entire dosing interval were collected per patient. Treatment duration before collection was at least five half-lives (depending on the specific oral anticancer drug). The samples were collected in K3-EDTA tubes.
A total of 71 blood samples from 39 patients treated with 14 different oral anticancer drugs were collected (see Supplement Table S4 for details). All patients were recruited from independent outpatient clinics associated with the Comprehensive Cancer Center of the University Hospital Erlangen (CCC Erlangen-EMN). Of 71 blood samples, 41 were taken ±4 h of trough level (cmin).

[5] = patient plasma, all samples, r.c. = respective cmin

In the case of `C=CC(=O)N1CCC[C@@H](n2nc(-c3ccc(Oc4ccccc4)cc3)c3c(N)ncnc32)C1` [Ibrutinib], the “cmin” value [1] is reported as 66 ng/mL, the “Autosampler (24h, 4°C) Accuracy [%]” value ([2]; validation standard 2xLLOV) is reported as 101.4% and the “Autosampler (72h, 4°C) Accuracy [%]” value ([2]; validation standard 2xLLOV) is reported as 100.0%. For the same compound, the “Autosampler (24h, 4°C) Accuracy [%]” value ([2]; validation standard LLOV) was 97.6%, the “Autosampler (72h, 4°C) Accuracy [%]” value ([2]; validation standard LLOV) was 95.8% and the “Autosampler (24h, 4°C) Accuracy [%]” value ([2]; validation standard MOV) was 103.0%. For the same compound, the “Autosampler (72h, 4°C) Accuracy [%]” value ([2]; validation standard MOV) was 103.7%, the “Autosampler (24h, 4°C) Accuracy [%]” value ([2]; validation standard ULOV) was 100.0% and the “Autosampler (72h, 4°C) Accuracy [%]” value ([2]; validation standard ULOV) was 102.6%. The “Freeze-Thaw Accuracy [%]” value ([3]; validation standard 2xLLOV) was 100.8%, the “Freeze-Thaw Accuracy [%]” value ([3]; validation standard LLOV) was 100.2% and the “Freeze-Thaw Accuracy [%]” value ([3]; validation standard MOV) was 93.3%. The “Freeze-Thaw Accuracy [%]” value ([3]; validation standard ULOV) was 95.6%, the “Measured plasma concentration” value ([4]; 420 mg/day) was 3.2 ng/mL and 4.2 ng/mL and the “Measured plasma concentration” value ([4]; 560 mg/day) was 115.2 ng/mL and 139.5 ng/mL. The “Interpatient Coefficient of Variation [%]” value ([4]; patient plasma concentrations) was 110.0%, the “Median Concentration of All Samples [% of r.c.]” value [4, 5] was 110.1 % of r.c and the “Min–Max Concentration [% of r.c.]” value [4, 5] was 4.8–211.4 % of r.c.
